In the METLIN SMRT retention time set (Domingo-Almenara et al. 2019):

Assay: gradient 5% acetonitrile 3 min, to 50% in 2 min, to 85% in 15 min, held 3 min, 100 µL/min
Conditions: column: Zorbax Extend-C18 2.1 x 50 mm; eluents: water / acetonitrile, 0.1% formic acid
Summary of the method: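 Retention times come from adduct peaks that were picked computationally and then checked by hand. The standards, pure and pooled in mixtures of ~100 molecules, were run on a Zorbax Extend-C18 column (2.1 × 50 mm, 1.8 μm) at 100 μL/min with water and acetonitrile, each with 0.1% formic acid. Detection was by quadrupole time-of-flight mass spectrometry in positive and negative ionization mode, with a dead volume of 40 μL and a dwell volume of 900 μL.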

Q: Which RP-LC retention time does the source give for `COc1ccc(NC(=O)CSc2nc3nc(C)cc(C)n3n2)c(OC)c1` here?
A: The RP-LC retention time was 713 s.

Q: Which RP-LC retention time does the source give for `Cc1ccc(Cc2nc(C3CC(=O)N(c4ccc(Cl)cc4)C3)no2)cc1` (stereo unspecified) here?
A: The RP-LC retention time was 1060 s.

Q: With `CCC(=O)NCc1nc2c(n1C)CN(C(=O)c1ccc(Br)cc1)CC2` as the molecule, how does the RP-LC retention time read?
A: Its RP-LC retention time is 605 s.

Q: Which RP-LC retention time does the source give for `COc1cc(NC(=O)Nc2nccn(-c3ccc(C(C)C)cc3)c2=O)cc(OC)c1` here?
A: The RP-LC retention time was 1110 s.

Q: Which RP-LC retention time does the source give for `CCc1nc2cc(N3CCC(C(=O)NCc4cccnc4)CC3)cnc2nc1CC` here?
A: The RP-LC retention time was 598 s.

Q: Which RP-LC retention time does the source give for `Cc1ccc(C)c(C(=O)N2CCc3c(c(-c4nc(C5CC5)no4)nn3C)C2)c1` here?
A: Its RP-LC retention time is 854 s.

Q: For `Cc1ccnc(N2CCCC(C(=O)NCC3CCN(Cc4ccc(Cl)cc4)CC3)C2)n1` (stereo unspecified), which RP-LC retention time is on record?
A: Its RP-LC retention time is 624 s.

Q: With `CCN1C(=O)COc2ccc(-c3csc(NC(=O)c4cccc(OC)c4)n3)cc21` as the molecule, how does the RP-LC retention time read?
A: Its RP-LC retention time is 967 s.

Q: Which RP-LC retention time does the source give for `CCOc1ccccc1-c1nc(C2CC(=O)N(c3ccc(C)cc3)C2)no1` (stereo unspecified) here?
A: The RP-LC retention time was 1090 s.

Q: Which RP-LC retention time does the source give for `CCc1ccc(N2CC(c3nc(-c4ccc(OC)cc4)no3)CC2=O)cc1` (stereo unspecified) here?
A: Its RP-LC retention time is 988 s.

Q: With `Cn1c(N2CCCC(C(=O)NCC3CCN(Cc4cccc(F)c4)CC3)C2)cc(=O)n(C)c1=O` (stereo unspecified) as the molecule, how does the RP-LC retention time read?
A: Its RP-LC retention time is 575 s.

Q: For `c1ccc(-c2nc(N3CCCCCC3)c3ccccc3n2)cc1`, which RP-LC retention time is on record?
A: The RP-LC retention time was 768 s.

Q: With `CC(C)n1c(=O)sc2cc(S(=O)(=O)N3CCC(C(=O)NCc4ccccn4)CC3)ccc21` as the molecule, how does the RP-LC retention time read?
A: The RP-LC retention time was 660 s.

Q: With `COc1ccc(OC)c(S(=O)(=O)N2CCCN(S(=O)(=O)c3ccccc3)CCC(=O)NCC2)c1` as the molecule, how does the RP-LC retention time read?
A: The RP-LC retention time was 793 s.

Q: With `Cc1ccc(NC(=O)Cn2cnc3c(sc4nc(-c5ccccc5)ccc43)c2=O)cc1` as the molecule, how does the RP-LC retention time read?
A: The RP-LC retention time was 859 s.

Q: With `Cc1ccccc1NS(=O)(=O)c1ccc2c(c1)C(=O)N(C)c1ncccc1O2` as the molecule, how does the RP-LC retention time read?
A: Its RP-LC retention time is 892 s.

Q: For `CCn1nc(C)n2cc(S(=O)(=O)NC(C)c3ccccc3)cc2c1=O` (stereo unspecified), which RP-LC retention time is on record?
A: Its RP-LC retention time is 882 s.

Q: With `O=C(NC(c1ccccc1)c1nnc(N2CCOCC2)o1)c1cccc(F)c1` (stereo unspecified) as the molecule, how does the RP-LC retention time read?
A: The RP-LC retention time was 758 s.

Q: Which RP-LC retention time does the source give for `CCc1nc(OCC(=O)NCc2ccc(N(C)C)cc2)c2c(C)c(C)oc2n1` here?
A: The RP-LC retention time was 689 s.

Q: With `Cc1noc(-c2cc(=O)n(CC(=O)Nc3cccc(Cl)c3)c3ccccc23)n1` as the molecule, how does the RP-LC retention time read?
A: The RP-LC retention time was 927 s.

Q: With `O=C(c1ccc2ccnc(N3CCN(c4ccccc4)CC3)c2c1)N1CCN(c2ccccn2)CC1` as the molecule, how does the RP-LC retention time read?
A: Its RP-LC retention time is 616 s.

Q: With `O=C(CN1CCCc2nc(C3CC3)ncc2C1=O)NC1CCCCC1` as the molecule, how does the RP-LC retention time read?
A: The RP-LC retention time was 723 s.

Q: For `CCN(Cc1ccncc1)C(=O)C(CO)c1ccccc1` (stereo unspecified), which RP-LC retention time is on record?
A: The RP-LC retention time was 619 s.

Q: With `COc1ccc(-n2/c(=N/C(=S)N(C)C)ss/c2=N\C(=S)N(C)C)cc1` as the molecule, how does the RP-LC retention time read?
A: Its RP-LC retention time is 1210 s.

Q: Which RP-LC retention time does the source give for `CSc1ccccc1NC(=O)c1cc2nc(C)ccc2o1` here?
A: The RP-LC retention time was 756 s.

Q: For `CCc1nc2cc(N3CCC(C(=O)N4CCCC4)CC3)cnc2nc1CC`, which RP-LC retention time is on record?
A: Its RP-LC retention time is 714 s.

Q: For `CCCC(=O)N1CC(c2nc(-c3cccnc3)no2)C2(CCOCC2)C1` (stereo unspecified), which RP-LC retention time is on record?
A: Its RP-LC retention time is 622 s.

Q: Which RP-LC retention time does the source give for `Cc1ccc(CNC(=O)C2CCN(c3cncnc3N3CCCC3)CC2)cc1` here?
A: The RP-LC retention time was 662 s.

Q: For `COc1cccc(CN2CCn3c(nnc3[C@@H]3C[C@@H](O)CN3Cc3ccccc3)C2)c1`, which RP-LC retention time is on record?
A: Its RP-LC retention time is 622 s.

Q: With `Cc1ccc(C)c(NC(=O)c2cn(-c3ncccc3-c3nc(C4CC4)no3)cn2)c1` as the molecule, how does the RP-LC retention time read?
A: The RP-LC retention time was 973 s.

Q: For `COc1cccc(-n2ccn3cc(-c4ccc(Cl)cc4)nc3c2=O)c1`, which RP-LC retention time is on record?
A: The RP-LC retention time was 875 s.

Q: For `CC1Oc2ccccc2N(Cc2nc(-c3ccc4c(c3)OCO4)no2)C1=O` (stereo unspecified), which RP-LC retention time is on record?
A: The RP-LC retention time was 1010 s.

Q: For `CCOC(=O)c1cc(S(=O)(=O)N2CCN(c3ncccn3)CC2)[nH]n1`, which RP-LC retention time is on record?
A: Its RP-LC retention time is 766 s.

Q: For `CC(C)CN1C(=O)c2ccccc2C(C(=O)NCCCN2CCOCC2)C1c1cccs1` (stereo unspecified), which RP-LC retention time is on record?
A: Its RP-LC retention time is 644 s.

Q: Which RP-LC retention time does the source give for `CCOCCOC1CCN(S(=O)(=O)Cc2ccccc2)CC1` here?
A: The RP-LC retention time was 856 s.

Q: For `O=C(NCC1(c2cccs2)CCOCC1)c1ccccc1F`, which RP-LC retention time is on record?
A: Its RP-LC retention time is 763 s.
